Source: ChEMBL document CHEMBL5696442, “Discovery of type II inhibitors of TGFβ-activated kinase 1 (TAK1) and mitogen-activated protein kinase kinase kinase kinase 2 (MAP4K2)” (J Med Chem, 2015)
Activity calls are given as the source filed them. The calls are words filed in the database; no cut-off is given here.

Assays:
[1] = biological target: T1, Serine/threonine-protein kinase Chk1 (Homo sapiens) (UniProt O14757); assay: Inhibition of CHEK1 (unknown origin) at 10 uM by Ambit Kinomescan binding assay
T1 sequence (whole entry): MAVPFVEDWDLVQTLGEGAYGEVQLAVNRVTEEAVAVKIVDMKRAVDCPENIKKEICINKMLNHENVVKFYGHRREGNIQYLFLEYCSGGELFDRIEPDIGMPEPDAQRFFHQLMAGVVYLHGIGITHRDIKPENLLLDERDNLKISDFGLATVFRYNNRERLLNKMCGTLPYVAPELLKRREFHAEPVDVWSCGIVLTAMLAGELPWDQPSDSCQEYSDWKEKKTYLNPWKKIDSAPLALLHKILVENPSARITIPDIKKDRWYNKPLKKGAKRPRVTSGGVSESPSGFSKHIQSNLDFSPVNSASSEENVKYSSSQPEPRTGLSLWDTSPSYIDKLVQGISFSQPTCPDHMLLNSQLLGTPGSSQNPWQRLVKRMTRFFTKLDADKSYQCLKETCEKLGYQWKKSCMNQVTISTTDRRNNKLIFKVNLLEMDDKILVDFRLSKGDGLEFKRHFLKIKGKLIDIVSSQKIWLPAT

[2] = biological target: T2, Dual specificity mitogen-activated protein kinase kinase 6 (Homo sapiens) (UniProt P52564); assay: Inhibition of MEK6 (unknown origin) at 10 uM by Ambit Kinomescan binding assay
T2 sequence (whole entry): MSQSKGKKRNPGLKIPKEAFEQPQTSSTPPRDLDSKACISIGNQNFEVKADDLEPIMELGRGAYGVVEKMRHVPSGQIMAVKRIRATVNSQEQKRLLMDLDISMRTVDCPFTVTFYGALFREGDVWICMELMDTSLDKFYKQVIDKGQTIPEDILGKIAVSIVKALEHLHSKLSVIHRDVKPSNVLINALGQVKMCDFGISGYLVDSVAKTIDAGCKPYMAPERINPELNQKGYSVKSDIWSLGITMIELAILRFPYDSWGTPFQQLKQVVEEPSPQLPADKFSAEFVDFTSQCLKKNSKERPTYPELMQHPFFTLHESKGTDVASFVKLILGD

[3] = biological target: Serine/threonine-protein kinase Nek2 (Homo sapiens) (UniProt P51955); assay: Inhibition of NEK2 (unknown origin) at 10 uM by Ambit Kinomescan binding assay
Sequence of Serine/threonine-protein kinase Nek2 (Homo sapiens) (P51955 whole entry): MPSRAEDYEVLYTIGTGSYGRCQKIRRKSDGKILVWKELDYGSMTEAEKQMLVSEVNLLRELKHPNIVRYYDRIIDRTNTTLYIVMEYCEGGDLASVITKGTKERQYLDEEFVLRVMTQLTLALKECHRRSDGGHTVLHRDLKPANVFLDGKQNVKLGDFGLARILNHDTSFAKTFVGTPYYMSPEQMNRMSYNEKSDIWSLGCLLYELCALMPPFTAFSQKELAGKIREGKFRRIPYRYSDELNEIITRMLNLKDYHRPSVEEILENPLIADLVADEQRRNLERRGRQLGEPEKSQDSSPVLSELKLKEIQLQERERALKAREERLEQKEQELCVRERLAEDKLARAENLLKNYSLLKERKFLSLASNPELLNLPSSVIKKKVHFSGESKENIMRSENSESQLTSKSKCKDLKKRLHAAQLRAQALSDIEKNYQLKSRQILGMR

[4] = biological target: Phosphatidylinositol 4-phosphate 5-kinase type-1 alpha (Homo sapiens) (UniProt Q99755); assay: Inhibition of PIP5K1A (unknown origin) at 10 uM by Ambit Kinomescan binding assay
[5] = biological target: T3, Mitogen-activated protein kinase kinase kinase kinase 2 (Homo sapiens) (UniProt Q12851); assay: Inhibition of MAP4K2 (GCK) Lys1 labeling site in human A-375 cells at 5 uM by KiNativ Profiling analysis relative to control; assay type: cell-based
T3 sequence (whole entry): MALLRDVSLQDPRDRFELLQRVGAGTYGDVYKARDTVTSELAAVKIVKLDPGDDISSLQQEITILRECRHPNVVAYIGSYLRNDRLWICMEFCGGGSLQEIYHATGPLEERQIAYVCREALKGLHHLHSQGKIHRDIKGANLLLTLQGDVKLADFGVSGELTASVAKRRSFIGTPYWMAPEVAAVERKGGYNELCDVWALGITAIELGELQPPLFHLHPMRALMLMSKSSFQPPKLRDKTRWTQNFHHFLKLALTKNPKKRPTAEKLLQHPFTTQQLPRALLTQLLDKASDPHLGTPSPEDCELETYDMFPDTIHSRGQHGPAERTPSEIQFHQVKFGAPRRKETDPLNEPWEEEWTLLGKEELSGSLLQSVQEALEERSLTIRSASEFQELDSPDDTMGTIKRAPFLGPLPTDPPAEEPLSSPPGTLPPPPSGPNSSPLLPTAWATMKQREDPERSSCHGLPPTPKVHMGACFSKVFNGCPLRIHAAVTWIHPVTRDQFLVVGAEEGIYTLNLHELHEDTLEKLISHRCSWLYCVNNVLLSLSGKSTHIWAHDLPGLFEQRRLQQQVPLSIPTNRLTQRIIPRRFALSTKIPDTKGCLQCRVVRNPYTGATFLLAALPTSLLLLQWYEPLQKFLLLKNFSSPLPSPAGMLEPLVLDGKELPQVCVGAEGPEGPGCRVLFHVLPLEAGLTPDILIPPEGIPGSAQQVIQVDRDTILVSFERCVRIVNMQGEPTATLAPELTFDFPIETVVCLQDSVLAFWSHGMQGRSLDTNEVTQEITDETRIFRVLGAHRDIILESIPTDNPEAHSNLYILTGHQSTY

[6] = biological target: Tyrosine-protein kinase Fer (Homo sapiens, UniProt P16591); assay: Inhibition of FER Lys1 labeling site harbouring DKTSVAVKTCKEDLPQELK in human A-375 cells at 0.05 uM by KiNativ Profiling analysis relative to control; assay type: cell-based
Sequence of Tyrosine-protein kinase Fer (P16591 whole entry, looked up): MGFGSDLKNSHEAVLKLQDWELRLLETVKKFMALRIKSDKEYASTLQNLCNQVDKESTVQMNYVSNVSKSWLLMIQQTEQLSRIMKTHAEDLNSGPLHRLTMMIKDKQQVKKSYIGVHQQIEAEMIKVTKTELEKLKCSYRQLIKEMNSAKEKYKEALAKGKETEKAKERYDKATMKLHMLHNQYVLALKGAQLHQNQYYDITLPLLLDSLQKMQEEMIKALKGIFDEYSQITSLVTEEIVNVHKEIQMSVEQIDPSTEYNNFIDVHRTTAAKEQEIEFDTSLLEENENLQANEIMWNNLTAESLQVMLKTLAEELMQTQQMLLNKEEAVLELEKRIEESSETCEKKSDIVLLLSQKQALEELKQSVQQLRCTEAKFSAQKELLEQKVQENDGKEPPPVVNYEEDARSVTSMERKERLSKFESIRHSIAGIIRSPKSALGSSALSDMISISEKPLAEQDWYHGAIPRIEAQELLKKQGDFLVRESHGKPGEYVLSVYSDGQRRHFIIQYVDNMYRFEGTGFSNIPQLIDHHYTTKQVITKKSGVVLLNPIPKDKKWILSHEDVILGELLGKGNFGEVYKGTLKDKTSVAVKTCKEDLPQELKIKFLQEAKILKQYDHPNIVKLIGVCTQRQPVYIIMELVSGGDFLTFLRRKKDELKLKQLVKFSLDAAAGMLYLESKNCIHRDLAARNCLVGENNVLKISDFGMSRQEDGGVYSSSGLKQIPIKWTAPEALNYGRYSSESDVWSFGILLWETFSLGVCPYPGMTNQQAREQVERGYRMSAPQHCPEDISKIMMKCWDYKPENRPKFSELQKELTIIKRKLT

[7] = biological target: Calcium/calmodulin-dependent protein kinase type II subunit gamma (Homo sapiens) (UniProt Q13555); assay: Inhibition of CaMK2g K1 labeling site in human Huh-7 cells at 10 uM by KiNativ Profiling analysis relative to control; assay type: cell-based
Sequence of Calcium/calmodulin-dependent protein kinase type II subunit gamma (Homo sapiens) (Q13555 whole entry): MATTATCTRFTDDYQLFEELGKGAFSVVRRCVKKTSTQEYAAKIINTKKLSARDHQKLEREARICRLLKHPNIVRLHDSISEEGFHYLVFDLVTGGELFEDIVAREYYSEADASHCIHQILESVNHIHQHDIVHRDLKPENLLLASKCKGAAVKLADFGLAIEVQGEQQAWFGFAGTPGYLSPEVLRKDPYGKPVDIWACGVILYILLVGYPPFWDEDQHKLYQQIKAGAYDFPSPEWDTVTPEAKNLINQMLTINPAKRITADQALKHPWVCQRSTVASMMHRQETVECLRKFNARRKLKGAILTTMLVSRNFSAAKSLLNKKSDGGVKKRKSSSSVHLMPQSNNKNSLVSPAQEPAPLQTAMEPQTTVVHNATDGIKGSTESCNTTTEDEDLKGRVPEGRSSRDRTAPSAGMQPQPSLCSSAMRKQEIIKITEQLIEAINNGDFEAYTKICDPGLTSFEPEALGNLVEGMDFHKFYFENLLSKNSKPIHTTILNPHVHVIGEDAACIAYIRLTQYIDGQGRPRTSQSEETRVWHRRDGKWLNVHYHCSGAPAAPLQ

[8] = biological target: Cyclin-dependent kinase 17 (Homo sapiens) (UniProt Q00537); assay: Inhibition of PCTAIRE2 K2 labeling site in human Huh-7 cells at 10 uM by KiNativ Profiling analysis relative to control; assay type: cell-based
Sequence of Cyclin-dependent kinase 17 (Homo sapiens) (Q00537 whole entry, looked up): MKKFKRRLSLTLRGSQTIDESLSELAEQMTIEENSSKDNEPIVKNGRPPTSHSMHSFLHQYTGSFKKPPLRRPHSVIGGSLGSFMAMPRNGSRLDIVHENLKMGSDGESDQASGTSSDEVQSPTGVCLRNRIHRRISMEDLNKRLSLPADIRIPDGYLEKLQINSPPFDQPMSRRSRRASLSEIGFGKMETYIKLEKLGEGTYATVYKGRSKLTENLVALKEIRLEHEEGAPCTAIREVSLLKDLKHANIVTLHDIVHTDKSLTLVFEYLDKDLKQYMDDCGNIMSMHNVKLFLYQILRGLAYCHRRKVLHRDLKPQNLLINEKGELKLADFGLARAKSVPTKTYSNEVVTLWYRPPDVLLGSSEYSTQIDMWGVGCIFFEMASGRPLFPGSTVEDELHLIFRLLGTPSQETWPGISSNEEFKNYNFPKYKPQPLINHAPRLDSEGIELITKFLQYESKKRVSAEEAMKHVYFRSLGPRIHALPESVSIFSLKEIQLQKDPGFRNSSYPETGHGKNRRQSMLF

[9] = biological target: STE20-like serine/threonine-protein kinase (Homo sapiens) (UniProt Q9H2G2); assay: Inhibition of SLK K2 labeling site harbouring DLKAGNILFTLDGDIK in human Huh-7 cells at 1 uM by KiNativ Profiling analysis relative to control; assay type: cell-based
[10] = biological target: Cyclin-dependent kinase 1 (Homo sapiens) (UniProt P06493); assay: Inhibition of CDC2 Lys2 labeling site in human Huh-7 cell lysate at 1 uM by KiNativ Profiling analysis relative to control; assay type: subcellular
Sequence of Cyclin-dependent kinase 1 (Homo sapiens) (P06493 whole entry, looked up, canonical isoform): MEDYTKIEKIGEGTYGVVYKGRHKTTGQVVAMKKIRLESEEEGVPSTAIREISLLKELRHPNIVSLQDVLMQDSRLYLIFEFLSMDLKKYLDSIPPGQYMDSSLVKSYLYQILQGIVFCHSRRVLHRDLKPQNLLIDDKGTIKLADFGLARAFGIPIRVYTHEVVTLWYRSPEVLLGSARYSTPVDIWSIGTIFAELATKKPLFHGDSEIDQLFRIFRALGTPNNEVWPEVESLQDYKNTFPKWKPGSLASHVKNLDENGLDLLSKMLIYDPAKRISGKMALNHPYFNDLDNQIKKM

[11] = biological target: Casein kinase I isoform alpha (Homo sapiens) (UniProt P48729); assay: Inhibition of CK1alpha Lys2 labeling site in human Huh-7 cell lysate at 1 uM by KiNativ Profiling analysis relative to control; assay type: subcellular
Sequence of Casein kinase I isoform alpha (Homo sapiens) (P48729 2-337 limits assumed): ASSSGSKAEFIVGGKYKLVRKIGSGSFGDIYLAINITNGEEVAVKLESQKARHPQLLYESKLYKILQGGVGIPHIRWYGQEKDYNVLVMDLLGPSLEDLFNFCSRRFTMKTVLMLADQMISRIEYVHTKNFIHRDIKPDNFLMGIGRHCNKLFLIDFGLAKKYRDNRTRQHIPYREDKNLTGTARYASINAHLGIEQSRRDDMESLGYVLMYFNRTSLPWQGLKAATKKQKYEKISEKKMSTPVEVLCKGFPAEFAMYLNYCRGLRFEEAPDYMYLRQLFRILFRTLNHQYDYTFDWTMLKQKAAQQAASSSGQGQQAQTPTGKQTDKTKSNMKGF

[12] = biological target: Serine/threonine-protein kinase 25 (Homo sapiens) (UniProt O00506); assay: Inhibition of YSK1 Lys2 labeling site in human Huh-7 cell lysate at 1 uM by KiNativ Profiling analysis relative to control; assay type: subcellular
[13] = biological target: Microtubule-associated serine/threonine-protein kinase 3 (Homo sapiens) (UniProt O60307); assay: Inhibition of MAST3 Lys2 labeling site in human Huh-7 cells at 1 uM by KiNativ Profiling analysis relative to control; assay type: cell-based
Sequence of Microtubule-associated serine/threonine-protein kinase 3 (Homo sapiens) (O60307 whole entry, the tested form may be a part): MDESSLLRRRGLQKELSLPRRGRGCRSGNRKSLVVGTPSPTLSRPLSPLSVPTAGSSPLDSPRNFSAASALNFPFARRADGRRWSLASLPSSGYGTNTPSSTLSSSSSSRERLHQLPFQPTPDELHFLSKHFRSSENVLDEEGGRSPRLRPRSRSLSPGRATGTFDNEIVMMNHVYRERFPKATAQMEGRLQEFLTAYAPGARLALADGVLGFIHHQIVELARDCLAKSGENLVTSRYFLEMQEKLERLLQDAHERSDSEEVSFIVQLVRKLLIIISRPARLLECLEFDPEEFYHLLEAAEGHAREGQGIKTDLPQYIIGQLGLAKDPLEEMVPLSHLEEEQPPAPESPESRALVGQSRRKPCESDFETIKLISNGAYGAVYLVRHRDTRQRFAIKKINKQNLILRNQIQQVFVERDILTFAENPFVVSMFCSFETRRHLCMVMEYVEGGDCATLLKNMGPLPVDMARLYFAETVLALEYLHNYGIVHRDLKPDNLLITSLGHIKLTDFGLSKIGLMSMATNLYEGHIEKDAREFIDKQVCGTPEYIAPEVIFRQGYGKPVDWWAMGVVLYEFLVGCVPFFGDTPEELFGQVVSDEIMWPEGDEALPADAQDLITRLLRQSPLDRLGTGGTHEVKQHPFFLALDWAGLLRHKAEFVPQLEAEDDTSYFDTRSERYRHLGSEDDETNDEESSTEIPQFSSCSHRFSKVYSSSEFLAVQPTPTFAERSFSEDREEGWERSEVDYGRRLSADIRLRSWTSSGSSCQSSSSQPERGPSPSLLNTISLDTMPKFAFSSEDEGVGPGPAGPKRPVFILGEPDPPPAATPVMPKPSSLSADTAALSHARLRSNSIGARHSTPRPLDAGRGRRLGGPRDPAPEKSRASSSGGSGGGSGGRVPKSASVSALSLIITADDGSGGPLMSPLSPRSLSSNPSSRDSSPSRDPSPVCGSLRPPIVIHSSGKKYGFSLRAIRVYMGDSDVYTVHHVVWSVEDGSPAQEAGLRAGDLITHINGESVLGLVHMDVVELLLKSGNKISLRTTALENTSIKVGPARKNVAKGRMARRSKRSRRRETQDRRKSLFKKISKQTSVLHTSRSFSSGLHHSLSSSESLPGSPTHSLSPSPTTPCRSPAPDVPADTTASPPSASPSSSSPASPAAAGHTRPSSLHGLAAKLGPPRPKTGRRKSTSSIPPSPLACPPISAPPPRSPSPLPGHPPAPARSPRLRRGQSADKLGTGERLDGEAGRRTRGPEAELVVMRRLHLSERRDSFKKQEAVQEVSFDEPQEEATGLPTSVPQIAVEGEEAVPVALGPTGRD

[14] = biological target: Ribosomal protein S6 kinase alpha-3 (Homo sapiens) (UniProt P51812); assay: Inhibition of RSK2 domain2 Lys1 labeling site in human Huh-7 cells at 1 uM by KiNativ Profiling analysis relative to control; assay type: cell-based
Sequence of Ribosomal protein S6 kinase alpha-3 (Homo sapiens) (P51812 whole entry, the tested form may be a part): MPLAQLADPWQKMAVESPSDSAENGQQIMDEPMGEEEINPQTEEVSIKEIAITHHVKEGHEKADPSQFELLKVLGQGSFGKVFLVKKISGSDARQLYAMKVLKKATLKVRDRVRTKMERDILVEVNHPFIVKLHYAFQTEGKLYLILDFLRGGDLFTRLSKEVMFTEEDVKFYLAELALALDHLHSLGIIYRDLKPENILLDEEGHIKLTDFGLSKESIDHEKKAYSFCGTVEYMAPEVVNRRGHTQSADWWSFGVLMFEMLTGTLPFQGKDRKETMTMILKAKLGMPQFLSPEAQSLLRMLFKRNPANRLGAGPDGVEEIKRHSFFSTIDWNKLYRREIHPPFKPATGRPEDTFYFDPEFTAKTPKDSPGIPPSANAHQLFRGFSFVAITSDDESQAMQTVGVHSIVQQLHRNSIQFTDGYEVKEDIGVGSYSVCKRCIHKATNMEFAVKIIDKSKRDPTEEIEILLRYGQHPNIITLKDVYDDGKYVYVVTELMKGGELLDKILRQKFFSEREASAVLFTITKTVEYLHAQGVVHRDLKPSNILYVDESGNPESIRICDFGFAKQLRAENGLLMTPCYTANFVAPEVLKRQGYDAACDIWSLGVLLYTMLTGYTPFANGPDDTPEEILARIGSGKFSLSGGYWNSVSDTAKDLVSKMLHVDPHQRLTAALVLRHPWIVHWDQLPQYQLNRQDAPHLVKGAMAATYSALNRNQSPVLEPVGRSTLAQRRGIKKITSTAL

CCN1CCN(Cc2ccc(NC(=O)c3ccc(C)c(Oc4ccnc5[nH]ccc45)c3)cc2C(F)(F)F)CC1
inhibition [1]: inactive | inhibition [2]: inactive | inhibition [3]: inactive | inhibition [4]: inactive | inhibition [5]: > 99.5% | inhibition [6]: 62.8% | inhibition [7]: 0% | inhibition [8]: 41.7% | inhibition [9]: 66.5%

CNc1cc(Oc2cc(C(=O)Nc3cc(N4CCN(C)CC4)cc(C(F)(F)F)c3)ccc2C)ncn1
inhibition [10]: 0.4% | inhibition [11]: 3.8% | inhibition [12]: -0.3% | inhibition [13]: 14.9% | inhibition [14]: 4.1%
